The text below walks through data of PMC11023993, “Piperine, quercetin, and curcumin identified as promising natural products for topical treatment of cutaneous leishmaniasis” (Parasitology Research, 2024).

The test system of data set [1] is macrophages. The arrangement: method as in Dos Santos et al. [2022]. The settings on record: ref Dos Santos et al. [2022], cited from earlier work.
Data set [2] has as its system L. braziliensis-induced cutaneous leishmaniasis ulcers. Put plainly: Histopathological analysis (H-E) of healed ulcers from treated hamsters. It is filed as in vivo, golden hamsters (Mesocricetus auratus). Details: key to Dermis: oedema (grade) / Dermis: granulomatous inflammation (grade) / Epidermis: orthokeratotic hyperkeratosis (grade) / Epidermis: spongiosis (grade) / Epidermis: ulcer (grade) / Dermis: neovascularization (grade) / Dermis: fibroplasia (grade) / Dermis: leukocytic infiltrate (grade): 0, absent; 1, mild; 2, mild to moderate; 3, moderate; 4, moderate to severe; 5, severe. The method, then: The changes were analyzed under a standard optical microscope.

The subject of data set [3] is intracellular amastigotes of L. braziliensis. Put plainly: In vitro leishmanicidal activity against intracellular amastigotes in infected U-937 macrophages (flow cytometry). It is filed as cell-based, Leishmania braziliensis. The settings on record: for EC50: Leishmania braziliensis. The method, then: Infective L. braziliensis (MHOM/CO/88/UA301-eGFP) (Pulido et al. [2012]) were cultured in Novy-MacNeal-Nicolle (NNN) biphasic medium at 26 °C for 3 passages maximum. U-937 cells, prepared as described in the previous section, were adjusted to approximately 3 × 10^5 cells per mL of supplemented RPMI 1640 medium containing […] of PMA to induce cell adherence. One mL was dispensed into each well of a 24-well plate and platters were incubated at 37 °C in % CO2, 95% humidity atmosphere for 72 h. Then, adherent cells were infected with fluorescent promastigotes of L. braziliensis in a 15:1 parasite to cell ratio. Plates were incubated again at 34 °C and % CO2, 95% humidity atmosphere. After 24 h, non-phagocytosed parasites were washed by pipetting phosphate buffered solution (PBS) in the plate at room temperature and 500 µL of fresh complete RPMI 1640 medium was added. Then, 500 µL of each serial dilution of QUE, PIP, CUR, and amphotericin B was added to each well and plates were incubated at 34 °C with % CO2, 95% humidity atmosphere. The EC50, the median effective concentration to induce […] killing of the intracellular amastigotes in infected cells, was measured by Flow cytometry at 488 nm of excitation and 525 nm of emission. After 48 h of incubation, cells were harvested with cold dissociation buffer (1x PBS with 2% EDTA) and the harvested cells were washed with buffer (1 × PBS with 2% FBS), and results were analyzed by FlowJo 10. The EC50 was determined with a non-lineal regression using Prism GraphPad 10.
(§1) The LC50 and the EC50 were calculated by Probit analysis using GraphPad Prism 10 (San Diego, CA, USA). Both cytotoxicity and leishmanicidal activity were defined by ranges of values of LC50 and EC50 in terms of high, moderate, or low as follows: high cytotoxicity for LC50 values < 100 µM, moderate cytotoxicity for LC50 values > 100 µM but < 200 µM, and low cytotoxicity for LC50 values > 200 µM. […] In addition, the cytotoxicity in U937 macrophages was correlated with the leishmanicidal activity by calculating the Selectivity Index (SI), using the equation: SI = LC50/EC50 (Indrayanto et al. [2021]).

Data set [4] has as its system L. braziliensis. Details: method as in Dos Santos et al. [2022]. The conditions noted are these: oral 20 mg/kg five times a week, from 7 days after infection for 8 weeks; ref Dos Santos et al. [2022]; cited from earlier work.
Data set [5] concerns L. major. Details: method as in Almadani et al. [2021]. The settings on record: oral 50 mg/kg for 28 consecutive days; ref Almadani et al. [2021]; cited from earlier work.
The subject of data set [6] is L. braziliensis amastigotes. The arrangement: method as in Dos Santos et al. [2022]. The settings on record: ref Dos Santos et al. [2022], read-out: antiamastigote activity EC50; cited from earlier work.
Data set [7] is described as follows: MTT cytotoxicity assay in uninfected U-937 macrophages. The conditions noted are these: human. The method, then: U-937 (CRL-1593.2™) macrophages (ATCC, Manassas, VA, USA) were cultured in RPMI-1640 medium supplemented with 10% of FBS and incubated at 37 °C in 5% CO2, 95% humidity atmosphere. U-937 cells in the exponential growth phase were recovered, and washed by centrifugation at 1800 rpm for 10 min at room temperature; the pellet was then resuspended in supplemented RPMI 1640 medium and counted in a Neubauer chamber. The number was adjusted to 1 × 10^6 cells per mL and 100 µL was dispensed into each well of a 96-well plate. Then, another 100 µL of each serial dilution of QUE, PIP, CUR, doxorubicin, and amphotericin B was added to each well by triplicate and plates were incubated at 37 °C 5% CO2, 95% humidity atmosphere for 48 h.
The MTT solution is then added to the treated cells, where the yellow MTT is reduced to purple formazan by a variety of mitochondrial and cytosolic enzymes that are operational in viable cells. After 3 h of incubation with MTT, the formazan precipitates. Consequently, the growing medium was removed, the formazan was dissolved in DMSO, and the absorbance of the solution was measured at 570 nm using a microplate reader spectrophotometer (Varioskan Flash, Thermo Fisher Scientific).
Cells exposed to the standard cytotoxic drug doxorubicin were used as an internal control for toxicity (positive control) while cells incubated in the absence of any compound or drug were used as a control for viability (negative control). A solution of 0.5% DMSO was used as a blank solution. Non-specific absorbance was corrected by subtracting absorbance (OD) of the blank. Determinations were done by triplicate in at least two independent experiments.
The OD of viable cells that remained after treatment was compared to the OD of control cells that were not exposed to the drug. The LC50 (median lethal concentration) values and their statistical errors were calculated based on triplicates of the measurement in the independent assays. The LC50 values were determined by non-linear regression using Prism GraphPad 10.
as §1

[8] abbreviates: healed ulcer after topical treatment.

Read-outs that look alike come from different tables or passages of the source. Bounds are passed on as bounds.

Turning to `O=c1c(O)c(-c2ccc(O)c(O)c2)oc2cc(O)cc(O)c12` [Quercetin, quercetin], in data set [1], the “concentration giving substantial decrease in macrophage viability” value was “exceeding 640 µM”. Also, the EC50 in data set [1] (read-out: macrophage viability, estimated EC50) is 478 ± 89 µM. The “granulomas and amastigotes in healed skin” value in data set [2] (H-E stain, healed skin after topical treatment) is on record as “No amastigotes are observed”. For the same compound, in data set [2] (setting [8]), the “Dermis: fibroplasia (grade)” value stood at 3, the “Dermis: granulomatous inflammation (grade)” value was found to be 0, the “Dermis: leukocytic infiltrate (grade)” value turned out to be 3 and the “Dermis: neovascularization (grade)” value was determined as 2. Further, in data set [2] (setting [8]), the “Dermis: oedema (grade)” value came out at 2, the “Epidermis: orthokeratotic hyperkeratosis (grade)” value is reported as 2, the “Epidermis: spongiosis (grade)” value is given as 2 and the “Epidermis: ulcer (grade)” value is recorded as 0. For the same compound, the “SI (Selectivity Index = LC50/EC50)” value in data set [3] (LC50 U-937 / EC50 L. braziliensis amastigotes) was greater than 20.6. The EC50 in data set [3] (U-937, amastigote stage of L. braziliensis, read-out: in vitro antileishmanial activity (EC50 in mass units)) came to 9.7 ± 0.6 µg/mL. Besides, the EC50 in data set [3] (intracellular amastigotes of L. braziliensis in U-937 macrophages, 48 h, read-out: EC50 (Median Effective Concentration)) turned out to be 32 ± 2 µM. Moreover, the Leishmanicidal activity result in data set [3] (class by EC50 on intracellular amastigotes of L. braziliensis) is listed as “High (high activity corresponds to EC50 values < 50 µM)”. For the same compound, the “lesion size and parasite load (lesion and draining lymph node)” value in data set [4] is “effectively controlled the lesion size and reduced the parasite load”. Also, the “histopathological analysis of tissue sections” value in data set [5] is “reduction in inflammatory cell count, an increase in fibroblasts, and enhanced collagen deposition”. In addition, the EC50 in data set [6] is 21 ± 2.5 µM. The compound also registered a CC50 at 48 h in data set [7] greater than 662 µM.
